Positions count from the first letter of the chain named. Each block holds one compound with its values, some of them ahead of it.
How the values were obtained:
Test in all cases: whole-cell patch clamp, HEK293T cells expressing mutant
Type in all cases: cell-based
Settings in all cases: for relative responsiveness: 100 µM agonist 2 s, relative to ATP (100%)
rP2X4R T281A mutant = molecular target: T1, rP2X4R T281A mutant (Rattus norvegicus, UniProt P51577, T281A)
T1 construct: expressed in transfected cells; host or cells: HEK293T
T1 sequence (P51577 1-388 T281A): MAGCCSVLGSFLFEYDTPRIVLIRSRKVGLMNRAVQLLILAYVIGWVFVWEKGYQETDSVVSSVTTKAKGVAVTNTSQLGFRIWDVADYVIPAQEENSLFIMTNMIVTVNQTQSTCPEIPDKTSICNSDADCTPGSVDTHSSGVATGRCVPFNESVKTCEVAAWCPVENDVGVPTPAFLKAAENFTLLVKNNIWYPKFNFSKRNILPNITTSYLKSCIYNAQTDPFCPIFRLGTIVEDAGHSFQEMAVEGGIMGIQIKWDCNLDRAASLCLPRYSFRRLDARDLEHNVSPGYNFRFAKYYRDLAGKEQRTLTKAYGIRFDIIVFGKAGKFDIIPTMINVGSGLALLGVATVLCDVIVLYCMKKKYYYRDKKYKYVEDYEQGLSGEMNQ
Description: (§1) To express the recombinant channels, we used human embryonic kidney (HEK) 293T cells (American Type Culture Collection, Rockville, MD, USA) grown in Dulbecco modified Eagle’s medium (Thermo Fisher Scientific, Waltham, MA) supplemented with 10% fetal bovine serum (Sigma-Aldrich, St Louis, MO), 50 U/ml penicillin and 50 µg/ml streptomycin (both Thermo Fisher Scientific, Waltham, MA) in a humidified 5% CO2 and 95% air at 37°C. Cells were cultured in 75 cm^2 plastic culture flasks (NUNC, Rochester, NY) for 36–72 hours until reaching 80–95% confluence. Before the day of transfection, the cells were plated on 35 mm culture dishes (Sarstedt, Newton, NC) and incubated at 37°C for at least 24 h. Transfection was done using 2 µg of either WT or mutant receptor DNA with 2 µl of JetPrime reagent in 2 ml of Dulbecco modified Eagle’s medium, according to manufacturer’s instructions (PolyPlus-transfection, Illkirch, France). Transfected cells were identified by the fluorescence signal of EGFP using the Olympus IX71 inverted research microscope with fluorescence illuminators (Model IX71; Olympus, Melville, NY).
(§2) cDNAs encoding the sequences of the rP2X4 and mutated subunits were subcloned into the pIRES2-EGFP vector (Clontech, Mountain View, CA, USA). To generate the mutants, oligonucleotides (synthesized and provided by VBC-Genomics, Vienna, Austria or Sigma Aldrich) containing specific mutagenesis mismatches were introduced into the rP2X4/pIRES2-EGFP template using PfU Ultra DNA polymerase (Thermo Fisher Scientific). A High-Speed Plasmid Mini Kit (Geneaid, Taipei City, Taiwan) was used to isolate the plasmids for transfection. Dye terminator cycle sequencing (ABI PRISM 3100, Applied Biosystems, Foster City, CA) was used to identify and verify the presence of the mutations. The sequencing was performed by the DNA Sequencing Laboratory, Institute of Microbiology, ASCR, Prague.
(§3) ATP-induced currents were recorded from whole cells clamped to −60 mV using an Axopatch 200B patch-clamp amplifier (Axon Instruments, Union City, CA). The recordings were captured and stored using the Digidata 1322A and pClamp9 software package (Axon Instruments). During the experiments, the cell culture was perfused with a bath solution containing: 142 mM NaCl, 3 mM KCl, 2 mM CaCl2, 1 mM MgCl2, 10 mM 4-(2-Hydroxyethyl)piperazine-1-ethanesulfonic acid (HEPES) and 10 mM D-glucose, adjusted to pH 7.3 with 1 M NaOH. The patch electrodes were filled with a solution containing: 154 mM CsCl, 11 mM EGTA and 10 mM HEPES, adjusted to pH 7.2 with 1.6 M CsOH. The whole-cell configuration was used to abolish the influence of natively present metabotropic receptors for ATP and we used intracellular cesium to block any kind of possible background potassium conductance. Potency of ATP was measured based on the activation of naïve (not previously stimulated) receptors using a short (2–5 s) application of various concentrations of ATP. The results are expressed as molar concentration of ATP required to produce 50% of the maximal response (EC50). One or two responses were recorded from one cell, if not otherwise stated, and responses from different cells were pooled. The maximum current amplitude (Imax) was measured in response to application of supramaximal concentrations (100–1000 µM) of ATP. Responsiveness to P2XR agonists 2-MeS-ATP, ATPγS, BzATP, and α,β-meATP, all applied in 100 µM concentration, was expressed as percentage of response in comparison to 100 µM ATP treatment for selected mutants. In all mutants, the whole cell currents were also measured in the presence of 3 µM IVM, which was dissolved in dimethyl sulfoxide, stored in stock solutions at 10 mM, and diluted to required concentrations in bath solution in the day of experiment. The control and drug containing solutions were applied via a rapid (exchange time 30–40 ms) perfusion system (RSC-200, BIOLOGIC, Claix, France). All other chemicals are from Sigma-Aldrich. […]

rP2X4R L214A mutant = molecular target: T2, rP2X4R L214A mutant (Rattus norvegicus, UniProt P51577, L214A)
T2 construct: expressed in transfected cells; host or cells: HEK293T
T2 sequence (P51577 1-388 L214A): T1 sequence (P51577 1-388 T281A) with L214A, A281T
Description: as §1, §2, §3

rP2X4R D280A mutant = molecular target: T3, rP2X4R D280A mutant (Rattus norvegicus, UniProt P51577, D280A)
T3 construct: expressed in transfected cells; host or cells: HEK293T
T3 sequence (P51577 1-388 D280A): T1 sequence (P51577 1-388 T281A) with D280A, A281T
Description: as §1, §2, §3

[1] = 100 µM ATP 60 s, biexponential fit
[2] = contribution of τdes2, 100 µM ATP 60 s
[3] = decay after removal of 1 or 3 µM ATP, 3 µM IVM
[4] = naïve receptors, 2–5 s application
[5] = 3 µM IVM 4-6 min vs IVM-untreated

Compound: 2′(3′-O-(4-Benzoylbenzoyl)adenosine 5′-triphosphate [BzATP]
relative responsiveness (rP2X4R T281A mutant): 26.7±3.9% | relative responsiveness (rP2X4R L214A mutant): 5.9±0.5 % | relative responsiveness (rP2X4R D280A mutant): 25.4±1.5%

relative responsiveness (rP2X4R T281A mutant): 69.6±5.1% | relative responsiveness (rP2X4R L214A mutant): 21.4±1.7 % | relative responsiveness (rP2X4R D280A mutant): 56.3±7.8%
Compound: CSc1nc(N)c2ncn([C@@H]3O[C@H](COP(=O)(O)OP(=O)(O)OP(=O)(O)O)[C@@H](O)[C@H]3O)c2n1 [2-MeS-ATP, 2-(Methylthio)adenosine 5′-triphosphate]

Compound: Nc1ncnc2c1ncn2[C@@H]1O[C@H](COP(=O)(O)OP(=O)(O)OP(=O)(O)O)[C@@H](O)[C@H]1O [ATP]
τdes1 (rP2X4R T281A mutant; [1]): 2.4 ± 0.4 s | τdes2 (rP2X4R T281A mutant; [1]): 15.6 ± 2.3 s | Imax (rP2X4R T281A mutant; 100–1000 µM ATP): 2.3 ± 0.3 nA | Imax+IVM (rP2X4R T281A mutant; ATP after 3 µM IVM 4-6 min): 4.8 ± 0.9 nA | A2 /(A1+A2) (rP2X4R T281A mutant; [2]): 72 ± 12% | τoff +IVM (rP2X4R T281A mutant; [3]): 13 ± 1.0 s | EC50 (rP2X4R T281A mutant; [4]): 8.2 ± 2.8 µM | τdes (rP2X4R T281A mutant; weighted, 100 µM ATP 60 s): 12 ± 2.4 s | EC50 rightward shift compared to WT (rP2X4R L214A mutant): approximately 10 fold | τdes1 (rP2X4R L214A mutant; [1]): 1.9 ± 0.4 s | τdes2 (rP2X4R L214A mutant; [1]): 12.6 ± 1.9 s | Imax (rP2X4R L214A mutant; 100–1000 µM ATP): 1.0 ± 0.2 nA | Imax+IVM (rP2X4R L214A mutant; ATP after 3 µM IVM 4-6 min): 3.9 ± 0.8 nA | A2 /(A1+A2) (rP2X4R L214A mutant; [2]): 62 ± 3% | τoff +IVM (rP2X4R L214A mutant; [3]): 3.4 ± 0.6 s | EC50 (rP2X4R L214A mutant; [4]): 25 ± 5.7 µM | τdes (rP2X4R L214A mutant; weighted, 100 µM ATP 60 s): 8.8 ± 1.3 s | EC50 rightward shift compared to WT (rP2X4R D280A mutant): approximately 10 fold | τdes1 (rP2X4R D280A mutant; [1]): 3.9 ± 1.2 s | τdes2 (rP2X4R D280A mutant; [1]): 22.9 ± 7.8 s | Imax (rP2X4R D280A mutant; 100–1000 µM ATP): 0.7 ± 0.1 nA | Imax+IVM (rP2X4R D280A mutant; ATP after 3 µM IVM 4-6 min): 3.6 ± 0.4 nA | A2 /(A1+A2) (rP2X4R D280A mutant; [2]): 62 ± 6% | τoff +IVM (rP2X4R D280A mutant; [3]): 5.5 ± 0.3 s | EC50 (rP2X4R D280A mutant; [4]): 26 ± 8.2 µM | τdes (rP2X4R D280A mutant; weighted, 100 µM ATP 60 s): 15 ± 3.7 s

relative responsiveness (rP2X4R T281A mutant): 50.2±5.9% | relative responsiveness (rP2X4R L214A mutant): 7.9±2.0 % | relative responsiveness (rP2X4R D280A mutant): 55.7±3.8%
Compound: Nc1ncnc2c1ncn2[C@@H]1O[C@H](CO[P@](=O)(O)O[P@](=O)(O)O[P@@](=O)(O)S)[C@@H](O)[C@H]1O [ATPγS, Adenosine 5′-(γ-thio)triphosphate]

Compound: CC[C@H](C)[C@H]1O[C@]2(CC[C@@H]1C)C[C@@H]1C[C@@H](C/C=C(\C)[C@@H](O[C@H]3C[C@H](OC)[C@@H](O[C@H]4C[C@H](OC)[C@@H](O)[C@H](C)O4)[C@H](C)O3)[C@@H](C)/C=C/C=C3\CO[C@@H]4[C@H](O)C(C)=C[C@@H](C(=O)O1)[C@]34O)O2 [IVM, ivermectin]
Fold incr. Imax (rP2X4R T281A mutant; [5]): 2.1 ± 0.2 fold | Fold incr. Imax (rP2X4R L214A mutant; [5]): 3.7 ± 0.7 fold | Fold incr. Imax (rP2X4R D280A mutant; [5]): 5.1 ± 0.5 fold

Compound: Nc1ncnc2c1ncn2C1OC(COP(=O)(O)CP(=O)(O)OP(=O)(O)O)C(O)C1O (stereo not drawn) [α,β-meATP, α,β-methyleneadenosine 5′-triphosphate]
relative responsiveness (rP2X4R T281A mutant): 28.2±5.5% | relative responsiveness (rP2X4R L214A mutant): 6.5±1.5 % | relative responsiveness (rP2X4R D280A mutant): 33.1±6.0%
